According to US20100022559A1, “BISOXIMES AS FUNGICIDES” (BAYER CROPSCIENCE AG, priority 2006, published 2010):

Assay: logP determination by HPLC on a reversed-phase column (C 18), EEC Directive 79/831 Annex V.A8
Type: physicochemical
Details: method marked [a] in Table 1
Method: The stated logP values were determined in accordance with EEC Directive 79/831 Annex V.A8 by HPLC (high performance liquid chromatography) on a reversed-phase column (C 18). Temperature: 43° C.

Row | Structure (SMILES) | logP
1 | Cc1cccc(C(=NOCC2(CON=C(c3cccc(C)n3)C3CC3)CC(c3ccccc3Cl)=NO2)C2CC2)n1 (stereo not drawn) [compound 648] | 4.46^[a]
2 | Cc1cccc(C(=NOCC2(CON=C(c3cccc(C)n3)C3CC3)CC(c3ccc(Cl)cc3)=NO2)C2CC2)n1 (stereo not drawn) [compound 649] | 4.53^[a]
3 | Cc1cccc(C(=NOCC2(CON=C(c3cccc(C)n3)C3CC3)CC(c3ccccc3)=NO2)C2CC2)n1 (stereo not drawn) [compound 650] | 3.80^[a]
4 | CCC1=NOC(CON=C(c2cccc(C)n2)C2CC2)(CON=C(c2cccc(C)n2)C2CC2)C1 (stereo not drawn) [compound 652] | 2.95^[a]
5 | Cc1cccc(C(=NOCC2(CON=C(c3cccc(C)n3)C3CC3)CC(CC(C)C)=NO2)C2CC2)n1 (stereo not drawn) [compound 653] | 3.99^[a]

Continued, values first:

Row | logP | Structure (SMILES)
6 | 5.69^[a] | CCC(=NOCC1(CON=C(CC)c2cccc(C)n2)CC(c2ccccc2Cl)=NO1)c1cccc(C)n1 (stereo not drawn) [compound 654]
7 | 4.54^[a] | Cc1cccc(C(=NOCC2(CON=C(c3cccc(C)n3)C3CC3)CC(c3cccc(Cl)c3)=NO2)C2CC2)n1 (stereo not drawn) [compound 655]
8 | 4.17^[a] | Cc1cccnc1C(=NOCCCON=C(c1ccccc1)c1ncccc1C)c1ccccc1 [compound 657]
9 | 4.54^[a] | Cc1cccnc1C(=NOCC(C)CON=C(c1ccccc1)c1ncccc1C)c1ccccc1 (stereo not drawn) [compound 658]
10 | 2.67^[a] | CC(=NOC/C=C/CON=C(C)c1ccc(C)c(C)n1)c1ccc(C)c(C)n1 [compound 684]
11 | 7.36^[a] | CCc1cc(-c2ccccc2)cc(C(C)=NOCC(C)CON=C(C)c2cc(-c3ccccc3)cc(CC)n2)n1 (stereo not drawn) [compound 692]

Same assay, conditions: method marked [b] in Table 1

Row | Structure (SMILES) | logP
12 | CC(=NOCC1(CON=C(C)c2cccc(C)n2)CC(c2ccccc2Cl)=NO1)c1cccc(C)n1 (stereo not drawn) [compound 602] | 4.46^[b]
13 | C/C(=N\OCC1(CO/N=C(\C)c2cccc(C)n2)CC(c2cccc(Cl)c2)=NO1)c1cccc(C)n1 [compound 603] | 4.67^[b]
14 | CC(C)=CC1=NOC(CO/N=C(\C)c2cccc(C)n2)(CO/N=C(\C)c2cccc(C)n2)C1 [compound 604] | 3.70^[b]
15 | CCC(=NOCC1(CON=C(CC)c2cccc(C)n2)CC(C)=NO1)c1cccc(C)n1 (stereo not drawn) [compound 605] | 3.42^[b]
16 | CCC(=NOCC1(CON=C(CC)c2cccc(C)n2)CC(C(C)C)=NO1)c1cccc(C)n1 (stereo not drawn) [compound 606] | 4.67^[b]
17 | CCCC1=NOC(CON=C(CC)c2cccc(C)n2)(CON=C(CC)c2cccc(C)n2)C1 (stereo not drawn) [compound 608] | 4.72^[b]
18 | CCC(=NOCC1(CON=C(CC)c2cccc(C)n2)CC(CC(C)C)=NO1)c1cccc(C)n1 (stereo not drawn) [compound 609] | 5.21^[b]
19 | CCC(=NOCC1(CON=C(CC)c2cccc(C)n2)CC(C(C)(C)C)=NO1)c1cccc(C)n1 (stereo not drawn) [compound 610] | 5.21^[b]
20 | CCC(=NOCC1(CON=C(CC)c2cccc(C)n2)CC(c2ccccc2)=NO1)c1cccc(C)n1 (stereo not drawn) [compound 611] | 5.08^[b]
21 | CCC(=NOCC1(CON=C(CC)c2cccc(C)n2)CC(c2ccc(Cl)cc2)=NO1)c1cccc(C)n1 (stereo not drawn) [compound 612] | 5.84^[b]
22 | CCC(=NOCC1(CON=C(CC)c2cccc(C)n2)CC(c2cccc(Cl)c2)=NO1)c1cccc(C)n1 (stereo not drawn) [compound 613] | 5.84^[b]
23 | CCCC(=NOCC1(CON=C(CCC)c2cccc(C)n2)CC(C)=NO1)c1cccc(C)n1 (stereo not drawn) [compound 615] | 4.56^[b]
24 | CCCC(=NOCC1(CON=C(CCC)c2cccc(C)n2)CC(C(C)C)=NO1)c1cccc(C)n1 (stereo not drawn) [compound 616] | 5.71^[b]
25 | CCCC(=NOCC1(CON=C(CCC)c2cccc(C)n2)CC(CC)=NO1)c1cccc(C)n1 (stereo not drawn) [compound 617] | 5.08^[b]
26 | CCCC(=NOCC1(CON=C(CCC)c2cccc(C)n2)CC(CC(C)C)=NO1)c1cccc(C)n1 (stereo not drawn) [compound 619] | 6.22^[b]
27 | CCCC(=NOCC1(CON=C(CCC)c2cccc(C)n2)CC(C(C)(C)C)=NO1)c1cccc(C)n1 (stereo not drawn) [compound 620] | 6.22^[b]
28 | CCCC(=NOCC1(CON=C(CCC)c2cccc(C)n2)CC(c2ccccc2)=NO1)c1cccc(C)n1 (stereo not drawn) [compound 621] | 5.9^[b]
29 | CCCC(=NOCC1(CON=C(CCC)c2cccc(C)n2)CC(c2ccc(Cl)cc2)=NO1)c1cccc(C)n1 (stereo not drawn) [compound 622] | 6.58^[b]
30 | CCCC(=NOCC1(CON=C(CCC)c2cccc(C)n2)CC(c2ccccc2Cl)=NO1)c1cccc(C)n1 (stereo not drawn) [compound 623] | 6.51^[b]
31 | CCCC(=NOCC1(CON=C(CCC)c2cccc(C)n2)CC(c2cccc(Cl)c2)=NO1)c1cccc(C)n1 (stereo not drawn) [compound 624] | 6.58^[b]
32 | CCCC(=NOCC1(CON=C(CCC)c2cccc(C)n2)CC(C=C(C)C)=NO1)c1cccc(C)n1 (stereo not drawn) [compound 625] | 5.97^[b]
33 | CC1=NOC(CON=C(C)c2ccc(C)c(C)n2)(CON=C(C)c2ccc(C)c(C)n2)C1 (stereo not drawn) [compound 626] | 2.07^[b]

Row | Structure (SMILES) | logP
34 | CC(=NOCC1(CON=C(C)c2ccc(C)c(C)n2)CC(C(C)C)=NO1)c1ccc(C)c(C)n1 (stereo not drawn) [compound 627] | 3.06^[b]
35 | CCC1=NOC(CON=C(C)c2ccc(C)c(C)n2)(CON=C(C)c2ccc(C)c(C)n2)C1 (stereo not drawn) [compound 628] | 2.51^[b]
36 | CCCC1=NOC(CON=C(C)c2ccc(C)c(C)n2)(CON=C(C)c2ccc(C)c(C)n2)C1 (stereo not drawn) [compound 629] | 3.11^[b]
37 | CC(=NOCC1(CON=C(C)c2ccc(C)c(C)n2)CC(CC(C)C)=NO1)c1ccc(C)c(C)n1 (stereo not drawn) [compound 630] | 3.70^[b]
38 | CC(=NOCC1(CON=C(C)c2ccc(C)c(C)n2)CC(C(C)(C)C)=NO1)c1ccc(C)c(C)n1 (stereo not drawn) [compound 631] | 3.65^[b]
39 | CC(=NOCC1(CON=C(C)c2ccc(C)c(C)n2)CC(c2ccccc2)=NO1)c1ccc(C)c(C)n1 (stereo not drawn) [compound 632] | 3.61^[b]
40 | CC(=NOCC1(CON=C(C)c2ccc(C)c(C)n2)CC(c2ccc(Cl)cc2)=NO1)c1ccc(C)c(C)n1 (stereo not drawn) [compound 633] | 4.51^[b]
41 | C/C(=N\OCC1(CO/N=C(\C)c2ccc(C)c(C)n2)CC(c2ccccc2Cl)=NO1)c1ccc(C)c(C)n1 [compound 634] | 4.3^[b]
42 | C/C(=N\OCC1(CO/N=C(\C)c2ccc(C)c(C)n2)CC(c2cccc(Cl)c2)=NO1)c1ccc(C)c(C)n1 [compound 635] | 4.51^[b]
43 | CC(C)=CC1=NOC(CO/N=C(\C)c2ccc(C)c(C)n2)(CO/N=C(\C)c2ccc(C)c(C)n2)C1 [compound 636] | 3.46^[b]
44 | CC(=NOCC1(CON=C(C)c2cc(C)cc(C)n2)CC(C(C)C)=NO1)c1cc(C)cc(C)n1 (stereo not drawn) [compound 638] | 2.18^[b]
45 | CCCC1=NOC(CON=C(C)c2cc(C)cc(C)n2)(CON=C(C)c2cc(C)cc(C)n2)C1 (stereo not drawn) [compound 640] | 2.20^[b]
46 | CC(=NOCC1(CON=C(C)c2cc(C)cc(C)n2)CC(CC(C)C)=NO1)c1cc(C)cc(C)n1 (stereo not drawn) [compound 641] | 2.66^[b]
47 | CC(=NOCC1(CON=C(C)c2cc(C)cc(C)n2)CC(C(C)(C)C)=NO1)c1cc(C)cc(C)n1 (stereo not drawn) [compound 642] | 2.62^[b]
48 | CC(=NOCC1(CON=C(C)c2cc(C)cc(C)n2)CC(c2ccccc2)=NO1)c1cc(C)cc(C)n1 (stereo not drawn) [compound 643] | 2.55^[b]
49 | CC(=NOCC1(CON=C(C)c2cc(C)cc(C)n2)CC(c2ccc(Cl)cc2)=NO1)c1cc(C)cc(C)n1 (stereo not drawn) [compound 644] | 3.28^[b]
50 | CC(=NOCC1(CON=C(C)c2cc(C)cc(C)n2)CC(c2ccccc2Cl)=NO1)c1cc(C)cc(C)n1 (stereo not drawn) [compound 645] | 3.19^[b]
51 | CC(=NOCC1(CON=C(C)c2cc(C)cc(C)n2)CC(c2cccc(Cl)c2)=NO1)c1cc(C)cc(C)n1 (stereo not drawn) [compound 646] | 3.28^[b]
52 | CC(C)=CC1=NOC(CON=C(C)c2cc(C)cc(C)n2)(CON=C(C)c2cc(C)cc(C)n2)C1 (stereo not drawn) [compound 647] | 2.48^[b]
53 | CC(=NOC(=O)N(C)C(=O)ON=C(C)c1ccc(C)c(C)n1)c1ccc(C)c(C)n1 [compound 674] | 2.79^[b]
54 | CC(=NOC(=O)N(C)C(=O)ON=C(C)c1cc(C)cc(C)n1)c1cc(C)cc(C)n1 [compound 676] | 2.21^[b]

The next lines start with the values.

Row | logP | Structure (SMILES)
55 | 2.54^[b] | C=C(CON=Cc1cccc(C)n1)CON=C(C)c1cccc(C)n1 [compound 663]
56 | 1.68^[b] | C(=NOCCON=Cc1ccccn1)c1ccccn1 [compound 665]
57 | 1.97^[b] | C(=NOCCCON=Cc1ccccn1)c1ccccn1 [compound 666]
58 | 2.16^[b] | C=C(CON=Cc1cccc(C)n1)CON=Cc1cccc(C)n1 [compound 667]
59 | 2.28^[b] | Cc1cccc(C=NOCC(C)CON=Cc2cccc(C)n2)n1 (stereo not drawn) [compound 668]
60 | 4.49^[b] | Cc1cccc(C(=NOCC(C)CON=C(c2cccc(C)n2)c2cccs2)c2cccs2)n1 (stereo not drawn) [compound 673]
61 | 5.06^[b] | CCC(CC)(C(=O)ON=C(C)c1ccc(C)c(C)n1)C(=O)ON=C(C)c1ccc(C)c(C)n1 [compound 675]
62 | 6.6^[b] | C=Cc1cccc(C(C)=NOCC(C)CON=C(C)c2cccc(C=C)n2)n1 (stereo not drawn) [compound 685]
63 | 7.36^[b] | CC(=NOCC(C)CON=C(C)c1ccc2cccc(C)c2n1)c1ccc2cccc(C)c2n1 (stereo not drawn) [compound 687]
64 | 2.71^[b] | Cc1cccc(C(N)=NOCC(C)CON=C(N)c2cccc(C)n2)n1 (stereo not drawn) [compound 689]
65 | 4.01^[b] | C=C(CON=C(Cl)c1cccc(C)n1)CON=C(Cl)c1cccc(C)n1 [compound 696]
66 | 2.23^[b] | Cc1cc(C)nc(/C(N)=N/OCc2ccccc2CO/N=C(\N)c2nc(C)cc(C)n2)n1 [compound 700]
67 | 2.13^[b] | Cc1cc(C)nc(/C(N)=N/OCc2cccc(CO/N=C(\N)c3nc(C)cc(C)n3)c2)n1 [compound 701]
68 | 2.11^[b] | Cc1cc(C)nc(/C(N)=N/OCc2ccc(CO/N=C(\N)c3nc(C)cc(C)n3)cc2)n1 [compound 702]
69 | 4.26^[b] | CC(=NOCc1ccccc1CON=C(C)c1cccc(C)n1)c1cccc(C)n1 [compound 703]
70 | 4.17^[b] | CC(=NOCc1cccc(CON=C(C)c2cccc(C)n2)c1)c1cccc(C)n1 [compound 704]
71 | 4.27^[b] | CC(=NOCc1ccc(CON=C(C)c2cccc(C)n2)cc1)c1cccc(C)n1 [compound 705]

Same assay, conditions: method marked [c] in Table 1

Row | logP | Structure (SMILES)
72 | 7.36^[c] | CC(=NOCC(C)CON=C(C)c1ccc2cccc(C)c2n1)c1ccc2cccc(C)c2n1 (stereo not drawn) [compound 687]
